Data taken from publication PMC10434152, “Effectors of the Type VI Secretion System Have the Potential to Be Modified into Antimicrobial Peptides” (Microbiology Spectrum, 2023).
Where two headings read alike, the source gives them in different places. Residues, ends and D or L forms follow the SMILES beside them.

What was measured:
S. aureus USA200 [1] = test: Checkerboard combination with ciprofloxacin; assay type: cell-based; conditions: in combination with ciprofloxacin
S. aureus USA200 [2] = test: MIC and MBC against MDR bacteria; assay type: cell-based; conditions: for MBC: Mueller-Hinton agar, 24 h
Procedure: (§1) MIC was measured according to Luna et al. ([25]) as described previously. Briefly, 100 μL of RPMI 1640 medium containing drugs at various concentrations was cultured with 100 μL of bacteria at 1 × 10^6 CFU/mL in 96-well plates at 37°C for 18 to 20 h. Wells containing 100 μL of bacteria at 1 × 10^6 CFU/mL and 100 μL medium were used as positive controls. Wells containing 100 μL drug and 100 μL medium were used as drug-negative controls, and wells containing 200 μL medium were used as negative controls.
(§2) The MBC, in which a combination of 10 μL from MIC was put into Mueller-Hinton agar medium and incubated for 24 h, was the first one in which […].

S. aureus ATCC 43300 = test: MIC and MBC against MDR bacteria; assay type: cell-based; conditions: for MBC: Mueller-Hinton agar, 24 h; for MIC: RPMI 1640, 37°C, 18 to 20 h
Procedure: as §1, §2

S. aureus 1802043 = test: MIC and MBC against MDR bacteria; assay type: cell-based; conditions: for MBC: Mueller-Hinton agar, 24 h; for MIC: RPMI 1640, 37°C, 18 to 20 h
Procedure: as §1, §2

Bacillus subtilis NCD-2 = test: MIC and MBC against MDR bacteria; assay type: cell-based; conditions: for MBC: Mueller-Hinton agar, 24 h; for MIC: RPMI 1640, 37°C, 18 to 20 h
Procedure: as §1, §2

S. aureus USA300 = test: MIC and MBC against MDR bacteria; assay type: cell-based; conditions: for MBC: Mueller-Hinton agar, 24 h; for MIC: RPMI 1640, 37°C, 18 to 20 h
Procedure: as §1, §2

Streptococcus SC19 = test: MIC and MBC against MDR bacteria; assay type: cell-based; conditions: for MBC: Mueller-Hinton agar, 24 h; for MIC: RPMI 1640, 37°C, 18 to 20 h
Procedure: as §1, §2

S. aureus ATCC 25923 = test: MIC and MBC against laboratory strain S. aureus ATCC 25923; assay type: cell-based, Staphylococcus aureus; conditions: for MBC: 10 μL from MIC put into Mueller-Hinton agar medium, 24 h; for MIC: 37°C, 18 to 20 h
Procedure: as §1, §2

E. coli ATCC 25922 = test: MIC and MBC against laboratory strain E. coli ATCC 25922; assay type: cell-based, Escherichia coli; conditions: for MBC: 10 μL from MIC put into Mueller-Hinton agar medium, 24 h; for MIC: 37°C, 18 to 20 h
Procedure: as §1, §2

ExPEC RS218 = test: MIC and MBC against MDR bacteria; assay type: cell-based, Escherichia coli; conditions: for MBC: Mueller-Hinton agar, 24 h; for MIC: RPMI 1640, 37°C, 18 to 20 h
Procedure: as §1, §2

ExPEC PCN033 = test: MIC and MBC against MDR bacteria; assay type: cell-based, Escherichia coli; conditions: for MBC: Mueller-Hinton agar, 24 h; for MIC: RPMI 1640, 37°C, 18 to 20 h
Procedure: as §1, §2

S. aureus USA200 [3] = test: S. aureus-infected mouse model, survival; assay type: in vivo; conditions: BALB/c mice, n = 10, 1 × 10^7 bacteria i.p.; 20 mg/kg i.p. 6 h after infection; survival after 7 days
Procedure: To determine the drug protection rate fraction, S. aureus USA200 that had been cultured overnight was cultured in LB broth to an OD600 of 0.5, washed three times, and resuspended in PBS. Forty female BALB/c mice (18 ± 2 g each) were divided randomly into four groups. All four groups (n = 10) of mice were injected intraperitoneally with 1 × 10^7 bacteria. Six hours after infection, the animals in the four groups received 20 mg/kg Tsap-1, 20 mg/kg ciprofloxacin, 10 mg/kg Tsap-1, and 10 mg/kg ciprofloxacin or an equal amount of PBS by intraperitoneal injection. The survival rate of the mice was recorded after 7 days.

S. aureus USA200 [4] = test: Mouse tissue load experiment; assay type: in vivo; conditions: BALB/c mice, five per group, 20 mg/kg i.p., tissues (liver, spleen, lung, kidney) harvested 12 h later, CFU
Procedure: For the mouse tissue load experiment, the bacteria were manipulated as described previously. Twenty female BALB/c mice (18 ± 2 g each) were divided randomly into four groups of five mice each. The animals in the four groups were injected intraperitoneally with 20 mg/kg Tsap-1 AMP, 20 mg/kg ciprofloxacin, 10 mg/kg Tsap-1, and 10 mg/kg ciprofloxacin or an equal amount of PBS. Twelve hours later, the mice were anesthetized with ether and perfused with PBS, and their livers, spleens, lungs, and kidneys were harvested. The tissues were then homogenized using a tissue grinder. Then, 10× serial dilutions of the homogenates were prepared and plated onto LB plates, and the CFUs were counted.

Sheep red blood cells = test: Hemolytic activity; assay type: cell-based; conditions: 4 μg/mL; 10% SRBCs, 37°C, 6 h, absorbance 540 nm, triplicate
Procedure: Sheep red blood cells (SRBCs) were used to detect hemolytic activity according to a previous method. Briefly, fresh SRBCs were washed with PBS, and a suspension of 10% SRBCs was mixed with solutions of Tsap or melittin at various concentrations. After incubation at 37°C for 6 h, the cells were removed by centrifugation at 800 × g for 10 min, and the absorbance of the supernatant at 540 nm was measured. Culture supernatant from cells that had been stimulated with 1% Triton X-100 was used as a positive control, and culture supernatant from cells that had been incubated with PBS was used as a negative control. Each measurement was taken in triplicate.

[5] = S. aureus USA200, RPMI 1640, 37°C, 18 to 20 h
[6] = RPMI 1640 medium, 1 × 10^6 CFU/mL, 96-well plates
[7] = RPMI supplemented with Glycine (0.5 mM)
[8] = RPMI supplemented with L-Arginine (0.5 mM)
[9] = RPMI supplemented with L-Histidine (0.5 mM)
[10] = RPMI supplemented with L-Tryptophan (0.125 mM)
[11] = RPMI supplemented with Leucine (1 mM)
[12] = RPMI supplemented with nonessential amino acid solution

| Compound | fractional inhibitory concentration index (FICI) (S. aureus USA200 [1]) | MBC (S. aureus USA200 [2]; S. aureus USA200) [µg/mL] | MIC (S. aureus USA200 [2]; [5]) [µg/mL] | MBC (S. aureus ATCC 43300) [µg/mL] | MIC (S. aureus ATCC 43300) [µg/mL] | MBC (S. aureus 1802043) [µg/mL] | MIC (S. aureus 1802043) [µg/mL] | MBC (Bacillus subtilis NCD-2) [µg/mL] | MIC (Bacillus subtilis NCD-2) [µg/mL] | MBC (S. aureus USA300) [µg/mL] | MIC (S. aureus USA300) [µg/mL] | MBC (Streptococcus SC19) [µg/mL] | MIC (Streptococcus SC19) [µg/mL] | MBC (S. aureus ATCC 25923) [µg/mL] | MIC (S. aureus ATCC 25923; [6]) [µg/mL] | MIC (S. aureus ATCC 25923; [7]) [µg/mL] | MIC (S. aureus ATCC 25923; [8]) [µg/mL] | MIC (S. aureus ATCC 25923; [9]) [µg/mL] | MIC (S. aureus ATCC 25923; [10]) [µg/mL] | MIC (S. aureus ATCC 25923; [11]) [µg/mL] | also measured |
| --- | --- | --- | --- | --- | --- | --- | --- | --- | --- | --- | --- | --- | --- | --- | --- | --- | --- | --- | --- | --- | --- |
| CC[C@H](C)[C@H](NC(=O)[C@H](CCSC)NC(=O)[C@H](CCCCN)NC(=O)[C@H](CCCCN)NC(=O)[C@H](CC(C)C)NC(=O)[C@H](CCCCN)NC(=O)[C@H](CCCCN)NC(=O)[C@@H](N)Cc1c[nH]c2ccccc12)C(=O)N[C@@H](CCCCN)C(=O)N[C@@H](CCCCN)C(=O)O [Tsap1] (H-WKKLKKMIKK-OH) | 0.5 | 8 | 64 | 4 | 16 | 2 | 16 | 4 | 16 | 2 | 16 | 4 | 16 | 4 | 16 | 16 | 16 | 16 | 16 | 16 | MIC (S. aureus ATCC 25923; [12]): 16 µg/mL; MBC (E. coli ATCC 25922): 4 µg/mL; MIC (E. coli ATCC 25922; [6]): 32 µg/mL; MIC (E. coli ATCC 25922; [7]): 16 µg/mL; MIC (E. coli ATCC 25922; [8]): 16 µg/mL; MIC (E. coli ATCC 25922; [9]): 32 µg/mL; MIC (E. coli ATCC 25922; [10]): 32 µg/mL; MIC (E. coli ATCC 25922; [11]): 32 µg/mL; MIC (E. coli ATCC 25922; [12]): 16 µg/mL; MBC (ExPEC RS218): 32 µg/mL; MIC (ExPEC RS218): 64 µg/mL; MBC (ExPEC PCN033): 32 µg/mL; MIC (ExPEC PCN033): 64 µg/mL |
| CC[C@H](C)[C@H](NC(=O)[C@H](CCSC)NC(=O)[C@H](CCCCN)NC(=O)[C@H](CCCCN)NC(=O)[C@H](CC(C)C)NC(=O)[C@H](C)NC(=O)[C@H](CCCCN)NC(=O)[C@@H](N)Cc1c[nH]c2ccccc12)C(=O)N[C@@H](CCSC)C(=O)N[C@@H](CCCCN)C(=O)N[C@H](C(=O)O)[C@@H](C)O [Tsap2] (H-WKALKKMIMKT-OH) | 1.125 | 64 | 512 | 8 | 16 | 8 | 16 | 8 | 16 | 8 | 16 | 8 | 16 | 16 | 64 | 64 | 16 | 64 | 64 | 64 | MIC (S. aureus ATCC 25923; [12]): 64 µg/mL; MBC (E. coli ATCC 25922): 32 µg/mL; MIC (E. coli ATCC 25922; [6]): 128 µg/mL; MIC (E. coli ATCC 25922; [7]): 64 µg/mL; MIC (E. coli ATCC 25922; [8]): 64 µg/mL; MIC (E. coli ATCC 25922; [9]): 128 µg/mL; MIC (E. coli ATCC 25922; [10]): 128 µg/mL; MIC (E. coli ATCC 25922; [11]): 128 µg/mL; MIC (E. coli ATCC 25922; [12]): 64 µg/mL; MBC (ExPEC RS218): 64 µg/mL; MIC (ExPEC RS218): 256 µg/mL; MBC (ExPEC PCN033): 64 µg/mL; MIC (ExPEC PCN033): 256 µg/mL |
| CC[C@H](C)[C@H](NC(=O)[C@H](CCCCN)NC(=O)[C@H](CCSC)NC(=O)[C@@H](NC(=O)[C@H](CCSC)NC(=O)[C@H](CCCCN)NC(=O)[C@H](CCCCN)NC(=O)[C@H](CC(C)C)NC(=O)[C@H](C)NC(=O)[C@H](CCCCN)NC(=O)[C@@H](N)Cc1c[nH]c2ccccc12)[C@@H](C)CC)C(=O)O [Tsap3] (H-WKALKKMIMKI-OH) | 1.25 | 16 | 64 | 4 | 16 | 2 | 16 | 4 | 16 | 2 | 16 | 4 | 16 | 8 | 16 | 16 | 16 | 16 | 16 | 16 | MIC (S. aureus ATCC 25923; [12]): 16 µg/mL; MBC (E. coli ATCC 25922): 4 µg/mL; MIC (E. coli ATCC 25922; [6]): 32 µg/mL; MIC (E. coli ATCC 25922; [7]): 16 µg/mL; MIC (E. coli ATCC 25922; [8]): 16 µg/mL; MIC (E. coli ATCC 25922; [9]): 32 µg/mL; MIC (E. coli ATCC 25922; [10]): 32 µg/mL; MIC (E. coli ATCC 25922; [11]): 32 µg/mL; MIC (E. coli ATCC 25922; [12]): 16 µg/mL; MBC (ExPEC RS218): 32 µg/mL; MIC (ExPEC RS218): 64 µg/mL; MBC (ExPEC PCN033): 32 µg/mL; MIC (ExPEC PCN033): 64 µg/mL |
| O=C(O)c1cn(C2CC2)c2cc(N3CCNCC3)c(F)cc2c1=O [ciprofloxacin] | – | – | – | – | – | – | – | – | – | – | – | – | – | – | – | – | – | – | – | – | MIC (S. aureus USA200 [2]; Staphylococcus aureus, S. aureus USA200, stated in text, read-out: MIC): 16 µg/mL; protection (S. aureus USA200 [3]): 60%; reduction of bacterial loads in all tissues compared with untreated group (S. aureus USA200 [4]): about 32 times |
| melittin | – | – | – | – | – | – | – | – | – | – | – | – | – | – | – | – | – | – | – | – | hemolysis activity (Sheep red blood cells): complete hemolysis activity |
